Results as given in BindingDB's records for doi:10.1016/j.bmcl.2015.04.102 (Arena Pharmaceuticals, 2015).

Assay: Displacement of [3H]-Astemizole from human ERG

For `C[C@@H](OC(=O)N1CCC(O[C@H]2CC[C@H](Oc3cnc(S(C)(=O)=O)cn3)CC2)CC1)C(F)(F)F`, the IC50 was greater than 1000 µM.
